The values that follow come from ChEMBL document CHEMBL1150868, “Verbenachalcone, a novel dimeric dihydrochalcone with potentiating activity on nerve growth factor-action from Verbena littoralis” (J Nat Prod, 2001).

Molecules are shown by their SMILES. The source made the active and inactive calls. No cut-off for these calls is given here.

Experiment [1] relates to PC-12. Kind of experiment: Enhancement of nerve growth factor-stimulated neurite outgrowth in rat PC12D cells at > 10 uM by microscopy. In kind it is functional, cell-based.
Experiment [2] has as its system PC-12. Kind of experiment: Induction of neurite outgrowth in rat PC12D cells at 1 to 30 uM in absence of nerve growth factor by microscopy. Format: functional, cell-based.

For the compound `COc1cc(CCC(=O)c2ccc(O)cc2O)ccc1Oc1cc(CCC(=O)c2ccc(O)cc2O)ccc1O`, in the experiment on PC-12 [1], the result was Active. Further, the outcome in the experiment on PC-12 [2] was inactive.
